Results published in US20210102239A1, “METHOD FOR DETERMINING BACTERIAL NUMBER IN SPECIMEN” (MITSUI CHEMICALS, INC., priority 2017, published 2021).

Tests used:
[1] = system: S. pneumoniae; assay: drug sensitivity test of the pathogenic bacterium from blood culture; assay type: cell-based, Streptococcus pneumoniae; conditions: Case 2, isolate from blood specimen sampled before antibiotic treatment
Protocol: (§1) According to Step 1 to Step 4 of Example 1, a pathogenic bacterium rapid quantification test using sepsis patient's specimens (EDTA blood collection tube, 2 mL) was carried out. […] Blood was sampled before treatment with an antibiotic (pretreatment), and 24 hours (after 24 hrs.) and 72 hours (after 72 hrs.) after administration of the antibiotic. At the three points, a pathogenic bacterium rapid quantification test was carried out together with measurement of body temperature, white blood cell count, CRP, presepsin and IL-6. Furthermore, a blood specimen sampled before the antibiotic treatment was subjected to a blood culture method to identify a pathogenic bacterium and subjected to a drug sensitivity test. General information about individual cases is as follows.

[2] = system: Klebsiella oxytoca, Haemophilus influenzae, Streptococcus pneumoniae; assay: Case 2: pathogen count (nested PCR) and biomarkers in blood before/after antibiotic treatment; assay type: in vivo, human (sepsis patient); conditions: for BT (body temperature): pretreatment 39.2; for WBC: pretreatment 108.8; for CRP: pretreatment 150.3; for Presepsin: pretreatment 5379; for IL-6: pretreatment 122000; for Pathogen (Ave): pretreatment 175270
Protocol: First, bacterial cells were collected from a blood specimen by centrifuging the whole blood at a low rate of 100×g for 5 minutes to separate blood cells, centrifuging the resultant supernatant (containing buffy coat) at a high rate of 20,000×g for 10 minutes to obtain a pellet.
Using DNA of a pathogenic bacterium taken from the blood specimen according to the method of Step 1 as a template, nested PCR (1st PCR: 30 cycle→100 double dilution→2nd PCR: 30 to 35 cycles) is carried out. The bacterial cells in patient specimens vary in a wide range from very small to large number. Since it is difficult to accurately determine the bacterial number in a single cycle of PCR, nested PCR methods are used in combination.
Subsequently, using pathogenic bacterium DNA of Step 1 as a template, nested PCR was carried out together with a quantification control in the conditions described in Step 2. In the 1st PCR and 2nd PCR for quantification, the following bacterial universal primer (primer for detecting almost all bacteria) was used. The target region of the bacterial universal primer is a bacterial conserved region (base sequence region common in almost all bacteria) of a 16S ribosomal RNA gene. A predetermined bacterium is quantified by a bacterial species-specific primer; however, a pathogenic bacterium is not identified in the early stage of sepsis. Because of this, a bacterial species-specific primer cannot be used. Accordingly, unless a bacterial universal primer is used, an unidentified bacterium cannot be detected.
As mentioned above, E. coli DNA samples of three different concentrations and of a known bacterial number were used as quantification controls. Based on the data of three quantification controls different in concentration, a calibration curve was prepared. Based on bacterial DNA extracted from a patient specimen, the number of pathogenic bacterial cells was determined. Since the number of bacterial cells was obtained as an E. coli cell-number equivalent used as a quantification control, the number of bacterial cells in a specimen can be more easily, rapidly and accurately determined.
as §1

[3] = system: K. oxytoca; assay: drug sensitivity test of the pathogenic bacterium from blood culture; assay type: cell-based, Klebsiella oxytoca; conditions: Case 2, isolate from blood specimen sampled before antibiotic treatment
Protocol: as §1

[4] = system: H. influenzae; assay: as above; assay type: cell-based, Haemophilus influenzae; conditions: Case 2, isolate from blood specimen sampled before antibiotic treatment
Protocol: as §1

CO/N=C(\C(=O)N[C@@H]1C(=O)N2C(C(=O)[O-])=C(C[N+]3(C)CCCC3)CS[C@H]12)c1csc(N)n1 [cefepim]
drug sensitivity [1]: medium-level sensitivity
BT (body temperature) ([2]; Case 2, 24 h after antibiotic): 36.4 °C
WBC ([2]; Case 2, 24 h after antibiotic): 418.1 × 100/μL
CRP ([2]; Case 2, 24 h after antibiotic): 240.0 mg/L
Presepsin ([2]; Case 2, 24 h after antibiotic): 6202 ng/mL
IL-6 ([2]; Case 2, 24 h after antibiotic): 7400 pg/mL
Pathogen (Ave) ([2]; Case 2, 24 h after antibiotic): 31453 cells/ml
BT (body temperature) ([2]; Case 2, 72 h after antibiotic): 36.3 °C
WBC ([2]; Case 2, 72 h after antibiotic): 348.7 × 100/μL
CRP ([2]; Case 2, 72 h after antibiotic): 145.5 mg/L
Presepsin ([2]; Case 2, 72 h after antibiotic): 6060 ng/mL
IL-6 ([2]; Case 2, 72 h after antibiotic): 168 pg/mL
Pathogen (Ave) ([2]; Case 2, 72 h after antibiotic): 2066 cells/ml
drug sensitivity [3]: sensitive
drug sensitivity [4]: sensitive
